For test [1], the system named is rTg4510 mice. Nature of the test: In vivo efficacy: NFTs and neuroinflammation markers by immunohistochemistry. The settings on record: 100 mg/kg, immunohistochemistry (data not shown). An excerpt: (§1) Double transgenic rTg4510 mice express the full-length human Tau carrying the P301L mutation (Tau4RON-P301L) under the control of the tet-inducible (or tetracycline-inducible system) CaMKII promoter (Ramsden et al., J. Neurosci., 2005·25(46):10637-10647). Single transgenic mice expressing only the tetracycline-controlled transactivator (tTA) were used as genotype controls. The study comprised 4 treatment groups (n=15 female for tTa group and n=33 female mice/group for the treatment) with the following group distribution (see Table 5). Mice were distributed over 5 cohorts and cages were composed with an average of 3 mice per cage. Compounds or vehicle control were administered bi-daily by gavage for 4 weeks starting at the age of 5 months.
After incubation of this mixture at room temperature for 1 hour, 25 μL of Streptavidin Donor beads (Perkin Elmer) at 25 μg/mL were added in the dark. Plates were analyzed after 30 minutes incubation using the EnSpire Alpha instrument and EnSpire Workstation version 3.00.

The subject of test [2] is misfolded Tau in SH-SY5Y cell line overexpressing full-length human Tau P301L. Nature of the test: Reduction of intracellular misfolded Tau. The format is cell-based. Conditions: 20 nM, 72 hours, differentiated P301L SH-SY5Y cells, MC1 antibody, vs DMSO control. The procedure:
The SH-SY5Y cell line overexpressing the full-length form of human Tau carrying the P301L mutation were cultured in complete medium DMEM-F12 4.5 g/L Glutamax (Invitrogen), 15% FBS (Biochrom), 1% Peni/Strep (Invitrogen) supplemented with 2.5 μg/ml of G418 (Sigma-Aldrich) selection antibiotic. For the in vitro differentiation from neuroblastoma cells to neurons, cells were plated in 24-well plates (Costar 3337) on glass coverslips coated with Poly-D-Lysine at a seeding density of 2.5×10^3 cells. P301L SH-SY5Y cells were differentiated for 1 week at 37° C. in culture medium in presence of 10 μM retinoic acid (RA; Sigma, R2625). Every 48-72 h media was changed and fresh retinoic acid was added. For the treatment with compound 1, were dispensed on the cells at concentrations between 1-20 nM for 72 hours, with changing compounds every 24 h. After the incubation with Compound 1, cells were pre-fixed with 2% PFA for 5 min followed by a 15 min fixation with 4% PFA. […] Permeabilized fixed cells were then incubated overnight in 10% NGS/0.25% Triton X-100 in PBS with monoclonal anti-mouse MC1 antibody detected misfolded Tau (provided by Prof. Peter Davies, Albert Einstein College of Medicine, New York, USA) and polyclonal anti-rabbit total Tau (Abcam; ab64193) both diluted 1:1000.

Test [3] has as its target T1, Tau K18 fragment aggregates (amino acids 244 to 372 of human Tau441) (Homo sapiens, UniProt P10636).
T1 construct: encompassing amino acids 244 to 372 of the longest isoform (2N4R) of human Tau441; purchased Biotechne; host or cells: bacteria
Nature of the test: Tau K18 disaggregation assay by ThT. Conditions: ThT fluorescence; 2 μM K18 aggregates, 30 minutes at RT. The format is biochemical. The essentials:
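K18 (35 μM) pre-aggregated 24 h at 37 °C with heparin and DTT under shaking; 2 μM aggregates then exposed 30 min at RT to compound (400–0.1 μM) in PBS. Remaining aggregates read by ThT fluorescence (ex 440/em 485 nm); EC50 of percent disaggregation, one-site fit.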

The target in test [4] is T2, flTau aggregates (longest isoform of human Tau, 2N4R) (Homo sapiens, UniProt P10636).
T2 construct: 35 μM of recombinant full-length (fl) Tau in phosphate-buffered saline (PBS) were aggregated; purchased Biotechne; host or cells: bacteria
Nature of the test: Full-length Tau (flTau) disaggregation assay by Thioflavin T (ThT). The test is classed as biochemical. The settings on record: ThT fluorescence; 60 nM flTau aggregates, 30 minutes at RT; read-out: flTau disaggregation EC50. The essentials:
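Recombinant 2N4R Tau (35 μM) pre-aggregated 72 h at 37 °C with 35 μM heparin and 10 mM DTT under shaking. Aggregates (60 nM final) incubated 30 min at RT in PBS with compound (20–0.0012 μM), then ThT added; fluorescence read at ex 440/em 485 nm and EC50 fitted to one-site model.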

Test [5] concerns rTg4510 mice. The experiment in a line: In vivo efficacy: aggregated Tau in cortical total brain homogenate (AlphaLISA). Conditions: 100 mg/kg bi-daily by gavage for 4 weeks.
Excerpt: In Vivo Efficacy of the Compounds of the Present Invention
as §1, with “months. […]” for “months.”
To prepare cortical total brain homogenates (Cx-TBH), frozen brains were resuspended in 9 volumes/weight of ice-cold homogenization buffer [25 mM Tris-HCl pH 7.4, 150 mM NaCl, 1 mM EDTA, 1 mM EGTA containing phosphatase inhibitors (30 mM NaF, 0.2 mM Na3VO4, 1 nM Okadaic acid, 1 mM PMSF, 5 mM Na4P2O7) and protease inhibitor cocktail (Complete™, Roche)] and homogenized in Eppendorf tubes with a VWR pellet mixer (47747-370). […] Aggregated Tau in total cortical homogenate was quantified using the following antibody pairs: HT7-Acceptor beads+biotin (BT)-HT7-donor beads. […]
(In Alpha technology, singlet oxygen from a donor bead excites a nearby acceptor bead.)

Molecules are shown by their SMILES. Entries after “also recorded” stand apart in the source; their conditions may differ.

T1 sequence (P10636 561-689): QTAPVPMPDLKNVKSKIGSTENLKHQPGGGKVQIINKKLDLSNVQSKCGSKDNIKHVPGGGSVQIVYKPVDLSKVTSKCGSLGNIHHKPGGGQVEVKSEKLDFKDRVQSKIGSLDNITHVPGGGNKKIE
T2 sequence (P10636 1-441 isoform P10636-8): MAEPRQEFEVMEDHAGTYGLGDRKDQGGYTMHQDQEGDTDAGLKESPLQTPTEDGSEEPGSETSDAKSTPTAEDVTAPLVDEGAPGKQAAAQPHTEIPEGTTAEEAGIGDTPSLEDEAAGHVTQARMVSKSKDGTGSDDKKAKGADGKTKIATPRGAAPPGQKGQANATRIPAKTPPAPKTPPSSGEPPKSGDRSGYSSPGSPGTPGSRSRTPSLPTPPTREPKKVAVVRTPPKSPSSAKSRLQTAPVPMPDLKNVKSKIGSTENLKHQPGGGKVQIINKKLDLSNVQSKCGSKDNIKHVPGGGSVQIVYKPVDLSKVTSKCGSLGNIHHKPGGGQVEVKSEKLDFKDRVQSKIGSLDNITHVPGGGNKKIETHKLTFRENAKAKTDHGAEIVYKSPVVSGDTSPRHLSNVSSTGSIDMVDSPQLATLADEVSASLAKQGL

Broadly, the EC50 is the concentration giving half of the maximal effect. `c1ccc2c(C3CCN(c4ccc5oc(N6CCOCC6)nc5c4)CC3)n[nH]c2c1` [Example 1, 5-(4-(1H-indazol-3-yl)piperidin-1-yl)-2-morpholinobenzo[d]oxazole]: the “NeuroFibrillary Tangles (NFTs)” value in test [1] is “significant decrease”. The “neuroinflammation marker CD68” value in test [1] is reported as “significant decrease”. In test [1], the “neuroinflammation marker Iba1” value is “significant decrease”. Moreover, the “Reduction of intracellular misfolded Tau” value in test [2] is recorded as “Reduction of intracellular misfolded Tau; also recorded: significantly different from DMSO control”. Further, the EC50 in test [3] and in test [4] was less than 1000 nM throughout. The “aggregated Tau in Cortical Total brain homogenate (Cx-TBH)” value in test [5] (100 mg/kg) was “significantly decreased”; in test [5] (listed as Compound 1, 100 mg/kg), “decreased of aggregated Tau”.
